# Key:
# [1] = Selective depuration of isomer pairs from vole tissue, Example 4; assay type: in vivo, meadow voles (Microtus penusylvanicus); settings: for Amount of isomer pair recovered from the tissue / concentration at 24 h / concentration at 48 h / concentration at 72 h / concentration at 96 h / concentration at 120 h: 10 ppm pellets, 0.54 mg/kg of A-D mixture consumed; for Ratio: isomers C and D to isomers A and B; for half-life / concentration at 24 h / concentration at 48 h / concentration at 72 h / concentration at 96 h / concentration at 120 h: po; for half-life: 0.54 mg/kg, calculated; for half-life / depuration: vole tissue; for depuration: in words; for concentration at 24 h / concentration at 48 h / concentration at 72 h / concentration at 96 h / concentration at 120 h: vole, tissue, read-out: Amount of isomer pair recovered from the tissue
# Description: This Example illustrates the selective depuration of the active ingredient of the invention compositions by meadow voles (Microtus penusylvanicus).
# Fasted wild voles were given pellets containing 10 ppm of mixture (approximately 1:1:1:1 by weight) of isomers A, B, C and D of brodifacoum until they had consumed 0.54 mg of active ingredient per kilogram of body weight. Voles were killed at 0, 1, 2, 3, 4, 5 and 14 days after dosing and the relative amounts of the A, B isomer pair and the C, D isomer pair remain in the vole tissue determined by chromatographic means.
# [2] = tested on: pheasants (Phasianus colchicus); assay type: in vivo; settings: pheasants fed pelleted formulations; vs mixture of all four isomers (approximately 1:1:1:1)
# Description: (§1) The compositions and methods of the invention may be successfully used to control rodents whilst minimising the hazard to non-target species as compared with the use of known compositions. […] This illustrates the improved safety of the invention compositions in the case of accidental ingestion of rodenticide bait by a non-target species.
# [3] = tested on: cats; assay: in vivo; assay type: in vivo; settings: diet simulating contaminated carcase
# Description: as §1
# [4] = Analysis of relative proportions of cis and trans isomers in carcasses of target and non-target species; assay type: in vivo, foxes, cats, hawks, owls and crows; settings: mixed isomers dosed
# Description: We have now discovered that although there is little to choose between the isomers in terms of their rodenticidal effectiveness there is a significant difference in their persistence in the tissues of nonrodent non-target species which may be exposed to accidental ingestion of brodifacoum.
# Species in which this selective depuration has been noted include scavanging and preditor mammals such as foxes and cats, and birds such as hawks, owls and crows. Thus if non-target species such as these consume the carcasses of rodents which have been killed by the use of the invention compositions they will be able to metabolise the residues of the active ingredient and not be at risk through bioaccumulation of a toxic dose by subsequently consuming further contaminated carcasses.
# [5] = in vivo; assay type: in vivo; settings: cat, in vivo, po; cats; similar diet with corresponding quantity of all four isomers
# Description: as §1
Structure (SMILES),Amount of isomer pair recovered from the tissue ([1]; 0 days after dosing) [mg/kg],half-life [1] [h],depuration [1],concentration at 24 h ([1]; 1 day after dosing) [ng/g],concentration at 48 h ([1]; 2 days after dosing) [ng/g],concentration at 72 h ([1]; 3 days after dosing) [ng/g],concentration at 96 h ([1]; 4 days after dosing) [ng/g],concentration at 120 h ([1]; 5 days after dosing) [ng/g],prothrombin time [3],also measured
O=c1oc2ccccc2c(O)c1[C@@H]1C[C@@H](c2ccc(-c3ccc(Br)cc3)cc2)Cc2ccccc21 (relative stereo) [Isomers C and D],0.122,~24,rapid depuration,52,24,14,11,5,temporary increase in prothrombin time which returned to normal after a short period,Ratio ([1]; 0 days after dosing): 0.818; Ratio ([1]; 1 day after dosing): 0.354; Ratio ([1]; 2 days after dosing): 0.211; Ratio ([1]; 3 days after dosing): 0.123; Ratio ([1]; 4 days after dosing): 0.089; Ratio ([1]; 5 days after dosing): 0.05; survival rate [2]: much higher survival rate; mortality ([3]; in words): no mortality; selective depuration / metabolism ([4]; listed as isomers C and D of brodifacoum): rapid depuration; selective depuration / metabolism ([4]; listed as trans isomer): selective metabolism of most or all of the trans isomer
"O=c1oc2ccccc2c(O)c1C1CC(c2ccc(-c3ccc(Br)cc3)cc2)Cc2ccccc21 (stereo not drawn) [all four brodifacoum isomers, reference compound]",,,,,,,,,increased prothrombin times which did not return to normal,mortality [5]: 100%
"O=c1oc2ccccc2c(O)c1[C@H]1C[C@@H](c2ccc(-c3ccc(Br)cc3)cc2)Cc2ccccc21 (relative stereo) [Isomers A and B, reference compound]",0.15,> 336,retained in the tissue,147,114,114,123,101,,selective depuration / metabolism [4]: not metabolised at a sufficient rate to avoid the lethal consequences; selective depuration / metabolism ([4]; listed as cis isomer): relatively metabolically more stable
